Data: ChEMBL document CHEMBL1201862, “PubChem BioAssay data set” (2004)
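Grown in 96-well plates, cells were treated for 48 hours with each compound at five concentrations. Insufficient inhibition: endpoint recorded as highest concentration tested. GI50 is the concentration that inhibits growth by half.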 Active and inactive are the calls of the source. Cut-off read from the data, not from the text of the source: active = GI50 up to about 1.1 µM and inactive = higher.

How the values were obtained:
Assay in all cases: inhibition of tumour cell growth, NCI panel, 48 h
[1] = tested on: SN12C
[2] = tested on: UO-31
[3] = tested on: RXF 631
[4] = tested on: CAKI-1
[5] = tested on: HOP-62
[6] = tested on: SNB-19
[7] = tested on: LXFL 529
[8] = tested on: UACC-62
[9] = tested on: A498
[10] = tested on: HOP-18
[11] = tested on: SW-620
[12] = tested on: Malme-3M
[13] = tested on: SF-268
[14] = tested on: M19-MEL
[15] = tested on: HL-60
[16] = tested on: HOP-92
[17] = tested on: SK-MEL-5
[18] = tested on: NCI-H23
[19] = tested on: NCI-H522
[20] = tested on: DMS-273
[21] = tested on: OVCAR-8
[22] = tested on: DLD-1
[23] = tested on: 786-0
[24] = tested on: ACHN
[25] = tested on: SNB-75
[26] = tested on: SK-OV-3
[27] = tested on: MOLT-4
[28] = tested on: RXF 393
[29] = tested on: SR
[30] = tested on: LOX IMVI
[31] = tested on: OVCAR-5
[32] = tested on: OVCAR-3
[33] = tested on: SK-MEL-28
[34] = tested on: DMS-114
[35] = tested on: SF-539
[36] = tested on: CCRF-CEM
[37] = tested on: HT-29
[38] = tested on: A549
[39] = tested on: M14
[40] = tested on: IGROV-1
[41] = tested on: COLO 205
[42] = tested on: EKVX
[43] = tested on: TK-10
[44] = tested on: OVCAR-4
[45] = tested on: K562
[46] = tested on: HCC 2998
[47] = tested on: SF-295
[48] = tested on: SNB-78
[49] = tested on: NCI-H226
[50] = tested on: HCT-116
[51] = tested on: KM-20L2
[52] = tested on: U-251
[53] = tested on: UACC-257
[54] = tested on: KM12
[55] = tested on: NCI-H460
[56] = tested on: RPMI-8226
[57] = tested on: HCT-15
[58] = tested on: SK-MEL-2

O=[N+]([O-])C1Cc2ccccc2OC1c1ccccc1 (stereo not drawn)
GI50 [1]: 21.7 µM (inactive) | GI50 [2]: > 100 µM (inactive) | GI50 [3]: 62.2 µM (inactive) | GI50 [4]: 24.1 µM (inactive) | GI50 [5]: 33.5 µM (inactive) | GI50 [6]: 41.9 µM (inactive) | GI50 [7]: > 100 µM (inactive) | GI50 [8]: 55.3 µM (inactive) | GI50 [9]: > 100 µM (inactive) | GI50 [10]: > 100 µM (inactive) | GI50 [11]: > 100 µM (inactive) | GI50 [12]: > 100 µM (inactive) | GI50 [13]: 36.1 µM (inactive) | GI50 [14]: > 100 µM (inactive) | GI50 [15]: 39.4 µM (inactive) | GI50 [16]: 83.2 µM (inactive) | GI50 [17]: > 100 µM (inactive) | GI50 [18]: 92.9 µM (inactive) | GI50 [19]: 26.6 µM (inactive) | GI50 [20]: 60.4 µM (inactive) | GI50 [21]: 89.7 µM (inactive) | GI50 [22]: 35.3 µM (inactive) | GI50 [23]: 35.3 µM (inactive) | GI50 [24]: 66.7 µM (inactive) | GI50 [25]: 19.9 µM (inactive) | GI50 [26]: 96.6 µM (inactive) | GI50 [27]: 23.4 µM (inactive) | GI50 [28]: 21.8 µM (inactive) | GI50 [29]: 15.3 µM (inactive) | GI50 [30]: 15.3 µM (inactive) | GI50 [31]: > 100 µM (inactive) | GI50 [32]: > 100 µM (inactive) | GI50 [33]: 86.1 µM (inactive) | GI50 [34]: > 10 µM (inactive) | GI50 [35]: 31.2 µM (inactive) | GI50 [36]: 30.8 µM (inactive) | GI50 [37]: 83.8 µM (inactive) | GI50 [38]: > 100 µM (inactive) | GI50 [39]: > 100 µM (inactive) | GI50 [40]: 64.4 µM (inactive) | GI50 [41]: 69 µM (inactive) | GI50 [42]: > 100 µM (inactive) | GI50 [43]: 77.1 µM (inactive) | GI50 [44]: > 100 µM (inactive) | GI50 [45]: 26.8 µM (inactive) | GI50 [46]: > 100 µM (inactive) | GI50 [47]: 40.5 µM (inactive) | GI50 [48]: 21.4 µM (inactive) | GI50 [49]: > 100 µM (inactive) | GI50 [50]: 66.4 µM (inactive) | GI50 [51]: > 100 µM (inactive) | GI50 [52]: 40.6 µM (inactive) | GI50 [53]: > 100 µM (inactive) | GI50 [54]: > 100 µM (inactive)

COc1cc2c(c(OC)c1OC)CCNC2C1=C(O)COC1=O (stereo not drawn)
GI50 [1]: > 100 µM (inactive) | GI50 [2]: > 100 µM (inactive) | GI50 [3]: > 100 µM (inactive) | GI50 [55]: 92.9 µM (inactive) | GI50 [4]: > 100 µM (inactive) | GI50 [5]: > 100 µM (inactive) | GI50 [6]: > 100 µM (inactive) | GI50 [7]: > 100 µM (inactive) | GI50 [8]: 55.6 µM (inactive) | GI50 [9]: > 100 µM (inactive) | GI50 [10]: 95.5 µM (inactive) | GI50 [11]: > 100 µM (inactive) | GI50 [56]: 88.3 µM (inactive) | GI50 [12]: > 100 µM (inactive) | GI50 [13]: > 100 µM (inactive) | GI50 [14]: > 100 µM (inactive) | GI50 [15]: > 100 µM (inactive) | GI50 [16]: > 100 µM (inactive) | GI50 [17]: 95.1 µM (inactive) | GI50 [19]: > 100 µM (inactive) | GI50 [57]: > 100 µM | GI50 [20]: > 100 µM (inactive) | GI50 [21]: > 100 µM (inactive) | GI50 [22]: > 100 µM (inactive) | GI50 [23]: > 100 µM (inactive) | GI50 [24]: > 100 µM (inactive) | GI50 [25]: > 100 µM (inactive) | GI50 [26]: > 100 µM (inactive) | GI50 [27]: > 100 µM (inactive) | GI50 [28]: > 100 µM (inactive) | GI50 [29]: > 100 µM (inactive) | GI50 [30]: > 100 µM (inactive) | GI50 [31]: > 100 µM (inactive) | GI50 [34]: > 100 µM (inactive) | GI50 [35]: > 100 µM (inactive) | GI50 [36]: > 100 µM (inactive) | GI50 [37]: > 100 µM (inactive) | GI50 [38]: > 100 µM (inactive) | GI50 [39]: > 100 µM (inactive) | GI50 [40]: > 100 µM (inactive) | GI50 [58]: 61.9 µM (inactive) | GI50 [41]: > 100 µM (inactive) | GI50 [43]: > 100 µM (inactive) | GI50 [44]: > 100 µM (inactive) | GI50 [45]: > 100 µM (inactive) | GI50 [46]: > 100 µM (inactive) | GI50 [47]: > 100 µM (inactive) | GI50 [48]: > 100 µM (inactive) | GI50 [49]: 28.9 µM (inactive) | GI50 [50]: > 100 µM (inactive) | GI50 [51]: > 100 µM (inactive) | GI50 [52]: > 100 µM (inactive) | GI50 [53]: > 100 µM (inactive) | GI50 [54]: > 100 µM (inactive)
